In US9765063B2, “Amido compounds as RORγt modulators and uses thereof” (New York University, priority 2011, dated 2017):

Assays:
[1] = Half-life in Human Liver Microsomes (HLM); type: in vitro ADME; conditions: for % Remaining @ 60 min / half-life at 1 μM / microsomal CLint at 1 μM: 1 μM compound, 0.78 mg/mL HLM, 37° C.; for half-life at 1 μM / microsomal CLint at 1 μM: human, human liver microsomes, pH 7.4; for half-life at 1 μM: Half-life=ln 2/k; for microsomal CLint at 1 μM: read-out: CLint (uM/Min/mg proteins)
Procedure: Test compounds (1 μM) are incubated with 3.3 mM MgCl2 and 0.78 mg/mL HLM (HL101) in 100 mM potassium phosphate buffer (pH 7.4) at 37° C. on the 96-deep well plate. The reaction mixture is split into two groups, a non-P450 and a P450 group. NADPH is only added to the reaction mixture of the P450 group. An aliquot of samples of the P450 group is collected at 0, 10, 30, and 60 min time points, where the 0 min time point indicated the lime at which NADPH is added into the reaction mixture of the P450 group. […] Collected aliquots are extracted with acetonitrile solution containing an internal standard. […] The compound concentration in supernatant is measured by LC/MS/MS system.
The half-life value is obtained by plotting the natural logarithm of the peak area ratio of compounds/internal standard versus time. The slope of the line of best fit through the points yields the rate of metabolism (k). This is converted to a half-life value using following equations: Half-life=ln 2/k

RORγt = target: T1, RORγt (Mus musculus, UniProt P51450); assay: RORγt S2 cell reporter assay (Gal4-RORγt fusion, UAS-luciferase); type: cell-based; conditions: Table 1A; Drosophila S2 cells, luciferase reporter; read-out: IC50
T1 construct: expressed in transfected cells; the other entry of the earlier key: GAL4 (P04386, Regulatory protein GAL4)
From the text: Methods: The Drosophila S2 cell line was originally purchased from Invitrogen and was maintained in Schneider's medium supplemented with 10% heat-inactivated bovine fetal calf serum and antibiotics (Invitrogen). […] The resulting chimeric gene was subcloned into the copper inducible pMT/V5-His A vector (available from Invitrogen).
Renilla luciferase construct under the polIII promoter was obtained from Dr. Dasgupta's laboratory (NYU medical center). In order to generate stable cell lines, cells were co-transfected with pMT-G4DBD-RORγt, pMT-G4DBD-RORα, pMT-G4DBD-DHR3, or pMT-G4DBDVP16 and pHygro plasmids (Invitrogen) and screened for resistant colonies in the presence of hygromycin (0.3 mg/mL). […] Using similar methods, stable clones with genomic integration of the luciferase reporters and other reporters were generated such as pMT-RORα_luc, pMT-DHR3_luc, or pMT-VP16_luc.
Methods: 600 G4DBD-RORγ/γt-luc reporter (#25) or G4DBD-VP16-luc reporter cells were distributed into each well of 1,536-well white bottom plates in 4 μl S2 cell culture volume containing hygromicin (300 μg/ml) and puromycin (2 μg/ml). […] After one-hour incubation, 1 of culture medium solution containing copper sulfate (to final 0.7 mM) and 10 μM RORγ/γt antagonists were added to each well. After 20-hour incubation at ambient temperature, 1.5 μl firefly luciferase detection mix was added and the luciferase activities were measured in 10 min. ViewLux luminometers were used for measuring luciferase signal.
A cell-based reporter assay was used to detect RORγt-mediated activity. This assay, called RORγt employed Drosophila Schneider cells that were stably transfected with two vectors: a gene expressing a fusion of the Gal4 DNA binding domain and RORγt transactivation domain under the control of the metallothionine promoter and a Photinus luciferase reporter regulated by the Gal4 binding site enhancer, UAS. […] Cells (600/well) were dispensed into white solid 1536-well plates (Greiner) using a solenoid-based dispenser. Following transfer of […] compound or DMSO vehicle by a pin tool, the plates were incubated 1 hr at ambient temperature, and 1 uL/well copper sulfate (700 uM final concentration) was added. The plates were centrifuged 15 s at 1000 RPM and incubated 20 hr at ambient temperature. After addition of 1.5 uL Photinus luciferase detection reagent, the plates were incubated 10 min at ambient temperature and then read by a ViewLux (Perkin Elmer) to detect luminescence. […] Efficacy is expressed as % of the maximal response of control inhibitor (Digoxin), set at 100%.

T1 sequence (P51450 with tags, fused parts or gaps): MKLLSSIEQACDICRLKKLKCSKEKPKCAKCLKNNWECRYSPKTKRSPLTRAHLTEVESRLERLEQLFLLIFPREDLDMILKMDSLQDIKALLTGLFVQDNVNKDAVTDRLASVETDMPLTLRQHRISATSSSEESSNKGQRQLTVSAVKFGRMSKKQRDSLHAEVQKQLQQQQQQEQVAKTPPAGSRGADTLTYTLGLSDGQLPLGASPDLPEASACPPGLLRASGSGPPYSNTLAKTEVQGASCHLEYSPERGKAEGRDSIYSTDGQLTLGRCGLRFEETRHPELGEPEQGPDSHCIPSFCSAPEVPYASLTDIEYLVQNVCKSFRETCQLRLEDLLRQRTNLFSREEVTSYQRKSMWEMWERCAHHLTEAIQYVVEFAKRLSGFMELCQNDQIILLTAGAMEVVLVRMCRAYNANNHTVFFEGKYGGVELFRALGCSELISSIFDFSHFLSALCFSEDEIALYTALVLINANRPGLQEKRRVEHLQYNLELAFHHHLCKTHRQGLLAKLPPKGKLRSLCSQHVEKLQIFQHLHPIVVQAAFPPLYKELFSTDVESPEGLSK

Structure (SMILES)	% Remaining @ 60 min [1] [%]	stability compared with compounds 150 and 157 ([1]; HLM, Table 3 data)	half-life at 1 μM [1] [min]	microsomal CLint at 1 μM [1] [µL/min/mg]	IC50 (RORγt) [nM]
CC1CC(C)CN(C(=O)CC(c2ccc(-n3cncn3)cc2)c2ccc3c(c2)OCO3)C1 (centres unmarked) [Compound 141, 3-(4-(1H-1,2,4-Triazol-1-yl)phenyl)-3-(benzo[d][1,3]dioxol-5-yl)-1-(3,5-dimethylpiperidin-1-yl)propan-1-one]	9.02	better or improved stability over the compounds with IDs 150 and 157	12.9	108	
COc1cc(OC)c(C(c2ccccc2)C(C)(C)C(=O)N2CC(C)OC(C)C2)c(OC)c1 (centres unmarked) [Compound 150, reference compound]	6.79		8	173	
COc1ccc2ccccc2c1C(c1ccc(F)cc1)C(C)(C)C(=O)N1CC(C)CC(C)C1 (centres unmarked) [Compound 157, reference compound]	6.78		6.9	201	
COc1cc(O)c(C(CC(=O)N2C[C@H](C)C[C@H](C)C2)c2ccc(OC)nc2)c(OC)c1 (some centres unmarked) [Compound 206, 1-(3,5-Dimethylpiperidin-1-yl)-3-(4,6-dimethoxy-2-hydroxy-phenyl)-3-(2-methoxypyrid-5-yl)propan-1-one]					< 1000
